Source: the NIST ThermoML archive (doi:10.1016/j.jct.2012.07.008)
Numbers after ± are expanded uncertainties.

Test: molar enthalpy of vaporization or sublimation
Settings: 298.15 K; Liquid; drop calorimetry

molar enthalpy: 16.6 ± 1.05 kcal/mol
SMILES: O=C1CCCc2occc21 [6,7-dihydrobenzofuran-4(5H)-one]
